Calls of active or inactive are those of the source. No cut-off for these calls is given here.
Legend:
[1] = Drug uptake in tumor of athymic nude mouse xenografted with human SJSA1 cells at 30 mg/kg, po qd after 7 hrs; type: ADME, organism-based, Neoplasm, SJSA-1; design: dose 30 mg/kg, route oral; conditions: read-out: Drug uptake
Protein Mdm4 = biological target: T1, Protein Mdm4 (Homo sapiens, UniProt O15151); assay: Binding affinity to MDMX (unknown origin) after 20 mins by HTRF assay
T1 sequence (O15151 whole entry): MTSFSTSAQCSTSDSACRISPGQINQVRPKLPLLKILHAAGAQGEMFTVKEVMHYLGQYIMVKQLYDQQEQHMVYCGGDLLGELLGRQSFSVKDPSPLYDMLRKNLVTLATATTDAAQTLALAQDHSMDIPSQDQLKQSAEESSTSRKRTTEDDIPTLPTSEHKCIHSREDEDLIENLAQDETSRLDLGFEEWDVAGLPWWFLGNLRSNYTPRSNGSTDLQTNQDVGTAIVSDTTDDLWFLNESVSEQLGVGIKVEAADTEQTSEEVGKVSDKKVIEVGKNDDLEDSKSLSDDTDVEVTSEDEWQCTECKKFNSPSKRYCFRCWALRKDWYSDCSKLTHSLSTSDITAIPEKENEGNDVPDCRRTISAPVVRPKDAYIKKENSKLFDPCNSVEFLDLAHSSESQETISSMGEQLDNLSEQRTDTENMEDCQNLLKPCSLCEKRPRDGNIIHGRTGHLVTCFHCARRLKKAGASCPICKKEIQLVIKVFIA

[2] = Half life in athymic nude mouse at 1 mg/kg, iv; type: ADME, organism-based; design: dose 1 mg/kg, route intravenous; conditions: in vivo
[3] = Plasma concentration in athymic nude mouse xenografted with human SJSA1 cells at 300 mg/kg, po qd after 7 hrs; type: ADME, organism-based, SJSA-1; design: dose 300 mg/kg, route oral
[4] = Oral bioavailability in athymic nude mouse at 5 mg/kg; type: ADME, organism-based; conditions: in vivo
[5] = Clearance in athymic nude mouse at 1 mg/kg, iv; type: ADME, organism-based; design: dose 1 mg/kg, route intravenous; conditions: in vivo
[6] = Drug uptake in tumor of athymic nude mouse xenografted with human SJSA1 cells at 300 mg/kg, po qd after 7 hrs; type: ADME, organism-based, Neoplasm, SJSA-1; design: dose 300 mg/kg, route oral; conditions: read-out: Drug uptake
[7] = AUC in athymic nude mouse at 5 mg/kg, po; type: ADME, organism-based; design: dose 5 mg/kg, route oral; conditions: plasma
[8] = Fraction unbound in rat plasma; type: ADME, cell-free
[9] = Drug uptake in tumor of athymic nude mouse xenografted with human SJSA1 cells at 100 mg/kg, po qd after 7 hrs; type: ADME, organism-based, Neoplasm, SJSA-1; design: dose 100 mg/kg, route oral; conditions: read-out: Drug uptake
[10] = Fraction unbound in mouse plasma; type: ADME, cell-free
[11] = Volume of distribution at steady state in athymic nude mouse at 1 mg/kg, iv; type: ADME, organism-based; design: dose 1 mg/kg, route intravenous; conditions: in vivo, read-out: Vdss
Mus musculus = species on record: Mus musculus; conditions: SJSA-1, 30 to 100 mg/kg
Description: In vivo inhibition of MDM2 in human SJSA1 cells xenografted in athymic nude mouse assessed as upregulation of p21 mRNA level at 30 to 100 mg/kg, po qd after 7 hrs by qRT-PCR analysis

[12] = Fraction unbound in human plasma; type: ADME, cell-free
[13] = biological target: T2, E3 ubiquitin-protein ligase Mdm2 (Homo sapiens, UniProt Q00987); assay: Inhibition of human recombinant GST-thrombin-MDM2 (1 to 188) expressed in Escherichia coli assessed as reduction of MDM2-p53 interaction incubated for 20 mins followed by p53 addition measured after 60 mins by HTRF assay
T2 sequence (Q00987 whole entry): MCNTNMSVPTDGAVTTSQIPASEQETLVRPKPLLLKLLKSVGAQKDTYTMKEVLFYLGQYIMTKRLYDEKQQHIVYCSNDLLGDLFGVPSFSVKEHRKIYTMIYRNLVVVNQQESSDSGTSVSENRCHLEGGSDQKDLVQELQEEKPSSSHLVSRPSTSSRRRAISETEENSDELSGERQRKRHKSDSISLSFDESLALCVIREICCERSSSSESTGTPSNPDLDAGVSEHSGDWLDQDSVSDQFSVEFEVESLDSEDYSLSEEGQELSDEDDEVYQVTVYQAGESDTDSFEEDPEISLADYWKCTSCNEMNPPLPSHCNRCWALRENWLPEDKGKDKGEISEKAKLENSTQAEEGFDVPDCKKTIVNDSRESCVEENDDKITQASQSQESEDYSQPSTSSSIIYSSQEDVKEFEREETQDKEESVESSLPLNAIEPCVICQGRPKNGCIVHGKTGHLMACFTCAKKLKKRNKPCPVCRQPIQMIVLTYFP

[14] = biological target: T2, E3 ubiquitin-protein ligase Mdm2; assay: Inhibition of human recombinant GST-thrombin-MDM2 (1 to 188) expressed in Escherichia coli assessed as reduction of MDM2-p53 interaction incubated for 20 mins followed by p53 addition measured after 60 mins by HTRF assay in presence of 15% serum

For O=C(O)C[C@@H]1O[C@@H](c2cccc(Cl)c2)[C@@H](c2ccc(Cl)cc2)N(CC2CC2)C1=O, the concentration at 7 h [1] was 0.3 µM, the IC50 (Protein Mdm4) was over 30 µM and the half-life [2] was 4.1 h. The concentration at 7 h [3] was 102 µM, the bioavailability [4] was 59% and the clearance [5] was 28.3 mL/min/kg. For the same molecule, the concentration at 7 h [6] was 22.9 µM, the AUC [7] was 4.1 µM·h and the fraction unbound [8] was 0.06. It also gave a concentration at 7 h [9] of 2.1 µM, a fraction unbound [10] of 0.059 and a Vd [11] of 3.9 L/kg. For the same molecule, the inhibition (Mus musculus) was “inactive” and the fraction unbound [12] was 0.042.
With CN1C(=O)[C@H](Cc2ccccc2)O[C@@H](c2ccc(Br)cc2)[C@H]1c1ccc(Br)cc1 the IC50 (Protein Mdm4) was over 30 µM.
COc1ccc([C@H]2CC(=O)C=C(c3ccc(Cl)cc3)[C@@H]2c2ccc(Cl)cc2)cc1OC (racemic) showed an IC50 [13] of over 30 µM.
In the case of CN1C[C@H](Cc2ccccc2)O[C@@H](c2ccc(Br)cc2)[C@H]1c1ccc(Br)cc1 (racemic), the IC50 [13] is reported as over 30 µM.
O=C(O)C[C@H]1C[C@H](c2cccc(Cl)c2)[C@@H](c2ccc(Cl)cc2)N(CC2CC2)C1=O showed an IC50 (Protein Mdm4) of over 30 µM.
CC(C)(C)OC(=O)N1CC(=O)N[C@H](c2ccc(Br)cc2)[C@@H]1c1ccc(Br)cc1 (racemic) showed an IC50 [13] of over 30 µM.
In the case of CCC[C@H](C(=O)O)N1C(=O)[C@H](Cc2ccc(F)cc2)O[C@@H](c2ccc(Cl)cc2)[C@H]1c1ccc(Cl)cc1, the IC50 (Protein Mdm4) is reported as over 30 µM.
Molecule CN1C(=O)CO[C@@H](c2ccc(Cl)cc2)[C@H]1c1cccc(Cl)c1 (racemic) has an IC50 [14] of over 30 µM and an IC50 [13] of over 30 µM.
